# Values of other authors in patent US10149481B2, “Arthropod control compositions and methods” (Tyratech, Inc., priority 2012, dated 2018).
# Columns and labels:
# D. variabilis = details: 2 h after application, unformulated (Kimps et al. 2011)
# [1] = for mammalian toxicity: Nentwig 2003, Frances 2007b, Moore and Debboun 2007
compound,measurement,setting,value
CCCCCCCCCC(C)=O [2-undecanone],repellency,D. variabilis,74%
"CCCCN(CCC(=O)OCC)C(C)=O [IR3535, 3-(N-Butyl-N-acetyl)-amino propionic acid ethyl ester]",mammalian toxicity,[1],low mammalian toxicity
"CC1CCC(C(C)(C)O)C(O)C1 (centres unmarked) [PMD, p-menthane-3,8-diol]",eye irritation,[1]; Strickman 2007,exceptionally irritating to the eyes
same,rat oral and rabbit dermal toxicity,[1]; Strickman 2007,low
Picaridin,mammalian toxicity,[1],low mammalian toxicity
